{
  "source": "paper PMC4873967",
  "about": "“ISPD produces CDP-ribitol used by FKTN and FKRP to transfer ribitol phosphate onto α-dystroglycan” (Nature Communications, 2016)",
  "format_in_all_cases": "biochemical",
  "key": {"[1]": {"target": "T1, FKRP (fukutin-related protein) (Mus musculus, UniProt Q8CG64)", "T1 construct": "full ORF from mouse thymus cDNA, C-terminal SFB tag (S-tag, two FLAG, SBP), HEK293 lysate, streptavidin beads", "T1 sequence (Q8CG64 1-494)": "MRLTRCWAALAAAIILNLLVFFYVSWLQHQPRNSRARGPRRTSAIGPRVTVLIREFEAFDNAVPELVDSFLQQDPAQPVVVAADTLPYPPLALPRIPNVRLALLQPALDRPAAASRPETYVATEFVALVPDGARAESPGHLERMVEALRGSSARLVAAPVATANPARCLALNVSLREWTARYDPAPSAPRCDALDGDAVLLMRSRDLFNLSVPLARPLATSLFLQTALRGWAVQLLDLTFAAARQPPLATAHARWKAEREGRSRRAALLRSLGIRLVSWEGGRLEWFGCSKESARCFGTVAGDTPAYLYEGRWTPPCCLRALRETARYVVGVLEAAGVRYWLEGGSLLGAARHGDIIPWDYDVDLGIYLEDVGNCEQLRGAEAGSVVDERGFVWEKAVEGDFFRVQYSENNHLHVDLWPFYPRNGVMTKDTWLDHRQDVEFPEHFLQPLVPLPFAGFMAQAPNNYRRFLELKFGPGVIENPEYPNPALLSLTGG", "assay": "transfer of radiolabel to alpha-dystroglycan (scintillation counting; SDS-PAGE phosphorimaging)", "details": "labelled compound; acceptor rabbit alpha-dystroglycan fragments; 2 mM MnCl2, pH 6.5, 30 °C, 16 h"}, "[2]": {"target": "T2, FKTN (fukutin) (Mus musculus, UniProt Q8R507)", "T2 construct": "full ORF from mouse brown adipose tissue cDNA, C-terminal SFB tag (S-tag, two FLAG, SBP), HEK293 lysate, streptavidin beads", "T2 sequence (Q8R507 1-461)": "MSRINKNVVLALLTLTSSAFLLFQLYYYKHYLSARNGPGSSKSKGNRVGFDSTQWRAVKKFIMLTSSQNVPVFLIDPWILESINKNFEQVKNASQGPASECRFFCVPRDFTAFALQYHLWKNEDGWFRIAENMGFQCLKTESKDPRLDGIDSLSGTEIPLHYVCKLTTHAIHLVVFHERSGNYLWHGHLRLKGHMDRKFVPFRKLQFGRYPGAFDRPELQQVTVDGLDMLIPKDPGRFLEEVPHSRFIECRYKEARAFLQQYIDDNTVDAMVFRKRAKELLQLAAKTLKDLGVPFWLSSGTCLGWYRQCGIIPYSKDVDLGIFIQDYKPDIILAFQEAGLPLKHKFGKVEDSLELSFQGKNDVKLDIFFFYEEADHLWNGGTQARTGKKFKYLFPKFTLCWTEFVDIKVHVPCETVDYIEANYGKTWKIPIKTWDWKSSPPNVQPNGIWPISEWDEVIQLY", "assay": "transfer of radiolabel to alpha-dystroglycan (scintillation counting; SDS-PAGE phosphorimaging)", "details": "labelled compound; acceptor rabbit alpha-dystroglycan fragments; 2 mM MnCl2, pH 6.5, 30 °C, 16 h"}, "[3]": {"target": "T3, ISPD (mouse Ispd) (Mus musculus, UniProt Q5RJG7)", "T3 construct": "gene Crppa", "T3 sequence (Q5RJG7 1-447)": "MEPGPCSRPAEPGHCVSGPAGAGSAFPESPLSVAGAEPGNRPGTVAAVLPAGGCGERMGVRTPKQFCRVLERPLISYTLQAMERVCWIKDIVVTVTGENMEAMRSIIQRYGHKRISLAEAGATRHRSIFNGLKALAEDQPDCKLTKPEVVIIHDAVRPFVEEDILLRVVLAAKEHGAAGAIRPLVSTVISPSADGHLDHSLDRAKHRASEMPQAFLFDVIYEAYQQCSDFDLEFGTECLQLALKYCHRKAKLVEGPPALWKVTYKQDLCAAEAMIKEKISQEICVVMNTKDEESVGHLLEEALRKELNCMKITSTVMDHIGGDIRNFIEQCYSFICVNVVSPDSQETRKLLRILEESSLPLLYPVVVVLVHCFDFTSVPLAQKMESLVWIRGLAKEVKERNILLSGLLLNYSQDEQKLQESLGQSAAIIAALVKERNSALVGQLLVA", "assay": "HPLC (strong anion exchange) of CDP-ribitol formed", "details": "1 mM CTP"}},
  "data": [
    {"molecule": "Nc1ccn([C@@H]2O[C@H](COP(=O)(O)OP(=O)(O)OC[C@@H](O)[C@@H](O)[C@@H](O)CO)[C@@H](O)[C@H]2O)c(=O)n1", "note": "[CDP-ribitol]", "values": [
      {"measurement": "transfer of radiolabel to alpha-dystroglycan (scintillation counting); SDS-PAGE p", "setting": "[1]", "result": "both FKTN and FKRP were able to transfer ribitol phosphate from CDP-ribitol onto α-dystroglycan"},
      {"measurement": "transfer of radiolabel to alpha-dystroglycan (scintillation counting); SDS-PAGE p", "setting": "[2]", "result": "both FKTN and FKRP were able to transfer ribitol phosphate from CDP-ribitol onto α-dystroglycan"}
    ]},
    {"molecule": "Nc1ccn([C@@H]2O[C@H](COP(=O)(O)OP(=O)(O)OP(=O)(O)O)[C@@H](O)[C@H]2O)c(=O)n1", "note": "[CTP]", "values": [
      {"measurement": "HPLC (strong anion exchange) of CDP-ribitol formed", "setting": "[3]; D-ribitol-5-P as co-substrate, 2 mM MgCl2, pH 7.8, 37 °C", "result": "Activity of ISPD on CTP and D-ribitol-5-P"}
    ]},
    {"molecule": "O=P(O)(O)OC[C@@H](O)[C@@H](O)[C@@H](O)CO", "note": "[D-ribitol-5-P]", "values": [
      {"measurement": "HPLC (strong anion exchange) of CDP-ribitol formed", "setting": "[3]; 2 mM MgCl2, 20 mM KCl, 2 mM DTT, pH 7.8, 37 °C", "result": "we clearly observed a CDP-ribitol pyrophosphorylase activity (Fig. 1b)"}
    ]}
  ]
}
